# Tests used:
# GSK-3β [1] = biological target: T1, GSK-3β (Homo sapiens, UniProt P49841); settings: cited from earlier work
# UO-31 = assay: NCI 60-cell line one dose antiproliferative assay; type: cell-based; settings: Homo sapiens; UO-31, Renal Cancer, 10 µM one dose; read-out: Percent inhibition (cell growth inhibition %)
# Source text: (§1) The National Cancer Institute "NCI", NIH, Bethesda, Maryland, USA (www.dtp.nci.nih.gov) chose six of the final compounds for the Developmental Therapeutic Program (DTP), codes (5a, 5b, 5c, 5d, 6a, 6b). The NCI screening service will favor compounds with drug-like modes of action based on computer-aided design. Selection The criterion for screening is the possibility of the submitted compounds to provide diversity to the NCI small molecule chemical collection. This screen employs 60 different Leukemia, melanoma, and additional tumor cell lines of the human from brain, kidney, lung, ovary, colon, breast, and prostate cancers. All compounds were picked based on their NCI codes. NSC: D-820696/1, NSC: D-820697/1, NSC: D-820698/1, NSC: D-820699/1, NSC: D-820700/1, NSC: D-820701/1. The initial 10 µM one dose percent inhibition assay was performed on the entire NCI 60 cell panel to examine the different chemotypes of this work. The results are presented as a percentage of cell growth on each of the 60 NCI cell line panels for each of the investigated substances in Table 2.
# (§2) The NCI cancer screening procedure includes a comparison of all substances to the sixty NCI cell line panel representing leukemia, NSCLC, cell lines from breast cancer, prostate cancer, melanoma, CNS cancer, renal cancer, ovarian cancer, and colon cancer at a single point of 10 uM. The results of the single-dose screen can be presented using a mean graph.
# T-47D = assay: NCI 60-cell line one dose antiproliferative assay; type: cell-based; settings: Homo sapiens, T47D, Breast Cancer, 10 µM one dose, read-out: Percent inhibition (cell growth inhibition %)
# Source text: as §1, §2
# K-562 = assay: NCI 60-cell line one dose antiproliferative assay; type: cell-based; settings: Homo sapiens, K562; K-562, Leukemia, 10 µM one dose; read-out: Percent inhibition (cell growth inhibition %)
# Source text: as §1, §2
# SF-268 = assay: NCI 60-cell line one dose antiproliferative assay; type: cell-based; settings: Homo sapiens; SF-268, CNS Cancer, 10 µM one dose; read-out: Percent inhibition (cell growth inhibition %)
# Source text: as §1, §2
# CAKI-1 = assay: NCI 60-cell line one dose antiproliferative assay; type: cell-based; settings: Homo sapiens; CAKI-1, Renal Cancer, 10 µM one dose; read-out: Percent inhibition (cell growth inhibition %)
# Source text: as §1, §2
# UACC-62 = assay: NCI 60-cell line one dose antiproliferative assay; type: cell-based; settings: Homo sapiens; UACC-62, Melanoma, 10 µM one dose; read-out: Percent inhibition (cell growth inhibition %)
# Source text: as §1, §2
# IGROV1 = assay: NCI 60-cell line one dose antiproliferative assay; type: cell-based; settings: Homo sapiens, IGROV-1; IGROV1, Ovarian Cancer, 10 µM one dose; read-out: Percent inhibition (cell growth inhibition %)
# Source text: as §1, §2
# A549/ ATCC = assay: NCI 60-cell line one dose antiproliferative assay; type: cell-based; settings: Homo sapiens, Non-Small Cell Lung Cancer, 10 µM one dose, read-out: Percent inhibition (cell growth inhibition %)
# Source text: as §1, §2
# NCI-H322M = assay: NCI 60-cell line one dose antiproliferative assay; type: cell-based; settings: Homo sapiens, Non-Small Cell Lung Cancer, 10 µM one dose, read-out: Percent inhibition (cell growth inhibition %)
# Source text: as §1, §2
# U251 = assay: NCI 60-cell line one dose antiproliferative assay; type: cell-based; settings: Homo sapiens, U-251; U251, CNS Cancer, 10 µM one dose; read-out: Percent inhibition (cell growth inhibition %)
# Source text: as §1, §2
# LOX IMVI = assay: NCI 60-cell line one dose antiproliferative assay; type: cell-based; settings: Homo sapiens, Melanoma, 10 µM one dose, read-out: Percent inhibition (cell growth inhibition %)
# Source text: as §1, §2
# A498 = assay: NCI 60-cell line one dose antiproliferative assay; type: cell-based; settings: Homo sapiens; A498, Renal Cancer, 10 µM one dose; read-out: Percent inhibition (cell growth inhibition %)
# Source text: as §1, §2
# MDA-MB-231/ATCC = assay: NCI 60-cell line one dose antiproliferative assay; type: cell-based; settings: Homo sapiens, Breast Cancer, 10 µM one dose, read-out: Percent inhibition (cell growth inhibition %)
# Source text: as §1, §2
# 786–0 = assay: NCI 60-cell line one dose antiproliferative assay; type: cell-based; settings: Homo sapiens; 786–0, Renal Cancer, 10 µM one dose; read-out: Percent inhibition (cell growth inhibition %)
# Source text: as §1, §2
# MCF7 = assay: NCI 60-cell line one dose antiproliferative assay; type: cell-based; settings: Homo sapiens; MCF7, Breast Cancer, 10 µM one dose; read-out: Percent inhibition (cell growth inhibition %)
# Source text: as §1, §2
# RPMI-8226 = assay: NCI 60-cell line one dose antiproliferative assay; type: cell-based; settings: Homo sapiens; RPMI-8226, Leukemia, 10 µM one dose; read-out: Percent inhibition (cell growth inhibition %)
# Source text: as §1, §2
# SR = assay: NCI 60-cell line one dose antiproliferative assay; type: cell-based; settings: Homo sapiens, Leukemia, 10 µM one dose, read-out: Percent inhibition (cell growth inhibition %)
# Source text: as §1, §2
# PC-3 = assay: NCI 60-cell line one dose antiproliferative assay; type: cell-based; settings: Homo sapiens; PC-3, Prostate Cancer, 10 µM one dose; read-out: Percent inhibition (cell growth inhibition %)
# Source text: as §1, §2
# M14 = assay: NCI 60-cell line one dose antiproliferative assay; type: cell-based; settings: Homo sapiens; M14, Melanoma, 10 µM one dose; read-out: Percent inhibition (cell growth inhibition %)
# Source text: as §1, §2
# EKVX = assay: NCI 60-cell line one dose antiproliferative assay; type: cell-based; settings: Homo sapiens, Non-Small Cell Lung Cancer, 10 µM one dose, read-out: Percent inhibition (cell growth inhibition %)
# Source text: as §1, §2
# SNB-19 = assay: NCI 60-cell line one dose antiproliferative assay; type: cell-based; settings: Homo sapiens; SNB-19, CNS Cancer, 10 µM one dose; read-out: Percent inhibition (cell growth inhibition %)
# Source text: as §1, §2
# HS 578 T = assay: NCI 60-cell line one dose antiproliferative assay; type: cell-based; settings: Homo sapiens, Breast Cancer, 10 µM one dose, read-out: Percent inhibition (cell growth inhibition %)
# Source text: as §1, §2
# MALME-3 M = assay: NCI 60-cell line one dose antiproliferative assay; type: cell-based; settings: Homo sapiens, Melanoma, 10 µM one dose, read-out: Percent inhibition (cell growth inhibition %)
# Source text: as §1, §2
# NCI-H226 = assay: NCI 60-cell line one dose antiproliferative assay; type: cell-based; settings: Homo sapiens; NCI-H226, Non-Small Cell Lung Cancer, 10 µM one dose; read-out: Percent inhibition (cell growth inhibition %)
# Source text: as §1, §2
# SN12C = assay: NCI 60-cell line one dose antiproliferative assay; type: cell-based; settings: Homo sapiens, Renal Cancer, 10 µM one dose, read-out: Percent inhibition (cell growth inhibition %)
# Source text: as §1, §2
# OVCAR-5 = assay: NCI 60-cell line one dose antiproliferative assay; type: cell-based; settings: Homo sapiens; OVCAR-5, Ovarian Cancer, 10 µM one dose; read-out: Percent inhibition (cell growth inhibition %)
# Source text: as §1, §2
# HOP-92 = assay: NCI 60-cell line one dose antiproliferative assay; type: cell-based; settings: Homo sapiens; HOP-92, Non-Small Cell Lung Cancer, 10 µM one dose; read-out: Percent inhibition (cell growth inhibition %)
# Source text: as §1, §2
# RXF 393 = assay: NCI 60-cell line one dose antiproliferative assay; type: cell-based; settings: Homo sapiens; RXF 393, Renal Cancer, 10 µM one dose; read-out: Percent inhibition (cell growth inhibition %)
# Source text: as §1, §2
# SNB-75 = assay: NCI 60-cell line one dose antiproliferative assay; type: cell-based; settings: Homo sapiens; SNB-75, CNS Cancer, 10 µM one dose; read-out: Percent inhibition (cell growth inhibition %)
# Source text: as §1, §2
# GSK-3β [2] = biological target: T1, GSK-3β; assay: GSK-3β kinase inhibition, Z'-LYTE FRET assay (Thermo Fisher SelectScreen); type: biochemical; settings: for inhibition at 100 µM: 100 μM single dose
# T1 sequence (P49841 whole entry): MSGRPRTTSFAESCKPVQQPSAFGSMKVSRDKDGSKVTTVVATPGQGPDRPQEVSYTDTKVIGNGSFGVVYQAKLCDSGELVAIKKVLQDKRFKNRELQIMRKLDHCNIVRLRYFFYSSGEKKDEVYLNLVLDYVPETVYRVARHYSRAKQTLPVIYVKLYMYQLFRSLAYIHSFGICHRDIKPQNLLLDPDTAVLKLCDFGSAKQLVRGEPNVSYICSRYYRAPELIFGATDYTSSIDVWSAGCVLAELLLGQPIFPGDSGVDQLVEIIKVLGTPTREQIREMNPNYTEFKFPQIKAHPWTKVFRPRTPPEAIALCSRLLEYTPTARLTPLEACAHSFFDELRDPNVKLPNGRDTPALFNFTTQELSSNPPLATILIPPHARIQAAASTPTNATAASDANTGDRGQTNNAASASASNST
smiles,measurement,setting,value
COc1ccc(-c2cc3c(NC(=O)c4cccc(F)c4)ncnc3o2)cc1 [II],IC50,GSK-3β [1],> 35 µM
O=C(COc1ncnc2sc3c(c12)CCCC3)NNC(=O)c1ccc([N+](=O)[O-])cc1 [6b],melting point,,320 to 321 °C
"O=C(COc1ncnc2sc3c(c12)CCCC3)NN=Cc1ccc(Cl)cc1 [5b, N'-(4-Chlorobenzylidene)-2-((5,6,7,8-tetrahydrobenzo [4,5]thieno[2,3-d]pyrimidin-4-yl)oxy) acetohydrazide]",melting point,,275 to 276 °C
same,inhibition at 10 µM,UO-31,23.1%
same,inhibition at 10 µM,T-47D,6.96%
same,inhibition at 10 µM,K-562,0.32%
same,inhibition at 10 µM,SF-268,4.27%
same,inhibition at 10 µM,CAKI-1,4.53%
same,inhibition at 10 µM,UACC-62,4.84%
same,inhibition at 10 µM,IGROV1,11%
same,inhibition at 10 µM,A549/ ATCC,4.36%
same,inhibition at 10 µM,NCI-H322M,0.39%
same,inhibition at 10 µM,U251,15.9%
same,inhibition at 10 µM,LOX IMVI,7.09%
same,inhibition at 10 µM,A498,11.1%
same,inhibition at 10 µM,MDA-MB-231/ATCC,7.6%
same,inhibition at 10 µM,786–0,2.11%
same,inhibition at 10 µM,MCF7,11.7%
same,inhibition at 10 µM,RPMI-8226,2.71%
same,inhibition at 10 µM,SR,1.63%
same,inhibition at 10 µM,PC-3,3.8%
same,inhibition at 10 µM,M14,2%
same,inhibition at 10 µM,EKVX,3.11%
same,inhibition at 10 µM,SNB-19,9.77%
same,inhibition at 10 µM,HS 578 T,7.62%
same,inhibition at 10 µM,MALME-3 M,6.05%
same,inhibition at 10 µM,NCI-H226,2.81%
same,inhibition at 10 µM,SN12C,2.55%
same,inhibition at 10 µM,OVCAR-5,8.96%
same,inhibition at 10 µM,HOP-92,0.71%
same,inhibition at 10 µM,RXF 393,4.13%
same,inhibition at 10 µM,SNB-75,18.4%
same,inhibition at 10 µM,GSK-3β [2],3%
same,inhibition at 100 µM,GSK-3β [2],17%
"S=C(Nc1ccccc1)Nc1ncnc2sc3c(c12)CCCC3 [9a, Phenyl-3-(5,6,7,8-tetrahydrobenzo [4,5]thieno[2,3-d)pyrimidin-4-yl) thiourea]",melting point,,300 °C
same,inhibition at 10 µM,GSK-3β [2],17%
same,inhibition at 100 µM,GSK-3β [2],68%

# Source: paper PMC10538245, “Fragment merging approach for design, synthesis, and biological assessment of urea/acetyl hydrazide clubbed thienopyrimidine derivatives as GSK-3β inhibitors” (BMC Chemistry, 2023)
